How the values were obtained:
Rattus norvegicus [1] = organism: Rattus norvegicus; experiment: animal or person; conditions: Wistar, Plasma, po, 24 h, read-out: INH
Rattus norvegicus [2] = experiment: Ex-vivo inhibition of DPP4 in po dosed Wistar rat plasma up to 24 hrs by fluorometry; format: functional, organism-based

## O=C([C@@H]1C[C@H](N2CCN(c3cc(C(F)(F)F)nc4ccccc34)CC2)CN1)N1CCSC1
Rattus norvegicus [1]
  inhibition in vivo at 3 µmol/kg: > 40%
Rattus norvegicus [2]
  inhibition: Dose-dependent effect
